According to patent US10597388B2, “Pyridazinone herbicides” (FMC CORPORATION, priority 2014, dated 2020):

Columns and labels:
Type in all cases: in vivo
[1] = test system: nightshade (eastern black nightshade, Solanum ptycanthum); assay: Test E greenhouse herbicide test, pre- and postemergence; details: Preemergence
Description: (§1) Seeds of plant species selected from corn (Zea mays), soybean (Glycine max), velvetleaf (Abutilon theophrasti), lambsquarters (Chenopodium album), wild poinsettia (Euphorbia heterophylla), pigweed, palmer (palmer pigweed, Amaranthus palmeri), waterhemp (common waterhemp, Amaranthus rudis), surinam grass (Brachiaria decumbens), crabgrass, large (large crabgrass, Digitaria sanguinalis), crabgrass, Brazilian (Brazilian crabgrass, Digitaria horizontalis), panicum, fall (fall panicum, Panicum dichotomiflorum), foxtail, giant (giant foxtail, Setaria faberii), foxtail, green (green foxtail, Setaria viridis), goosegrass (Eleusine indica), johnsongrass (Sorghum halepense), ragweed (common ragweed, Ambrosia elatior), barnyardgrass (Echinochloa crus-galli), sandbur (southem sandbur, Cenchrus echinatus), arrowleaf sida (Sida rhombifolia), Italian ryegrass (Lolium multiflorum), dayflower (Virginia (VA) dayflower, Commelina virginica), field bindweed (Convolvulus arvensis), momingglory (Ipomoea coccinea), nightshade (eastern black nightshade, Solanum ptycanthum), kochia (Kochia scoparia), nutsedge, yellow (yellow nutsedge, Cyperus esculentus), horseweed (Conyza canadensis), and beggarticks (hairy beggarticks, Bidens pilosa), were planted into a silt loam soil and treated preemergence with test chemicals formulated in a non-phytotoxic solvent mixture which included a surfactant.
(§2) At the same time, plants from these crop and weed species and also waterhemp_RES1, (ALS & Triazine resistant common waterhemp, Amaranthus rudis), and waterhemp_RES2, (ALS & HPPD resistant common waterhemp, Amaranthus rudis) were planted in pots containing Redi-Earth® planting medium (Scotts Company, 14111 Scottslawn Road, Marysville, Ohio 43041) comprising spaghnum peat moss, vermiculite, wetting agent and starter nutrients were treated with postemergence applications of test chemicals formulated in the same manner. Plants ranged in height from 2 to 18 cm for postemergence treatments (1- to 4-leaf stage). Treated plants and controls were maintained in a greenhouse for 14 to 21 d, after which time all species were compared to controls and visually evaluated. Plant response ratings, summarized in Table E, are based on a scale of 0 to 100 where 0 is no effect and 100 is complete control. A dash (-) response means no test result.

[2] = test system: arrowleaf sida (Sida rhombifolia); assay: as above
Description: as §1, §2

[3] = test system: lambsquarters (Chenopodium album); assay: as above; details: Preemergence
Description: as §1, §2

soybean (Glycine max) = assay: as above
Description: as §1, §2

[4] = test system: sandbur (southem sandbur, Cenchrus echinatus); assay: as above
Description: as §1, §2

[5] = test system: dayflower (Virginia (VA) dayflower, Commelina virginica); assay: as above
Description: as §1, §2

[6] = test system: johnsongrass (Sorghum halepense); assay: as above; details: Preemergence
Description: as §1, §2

[7] = test system: surinam grass (Brachiaria decumbens); assay: as above; details: Preemergence
Description: as §1, §2

[8] = test system: barley, winter (winter barley, Hordeum vulgare); assay: Test D controlled growth environment herbicide test, pre- and postemergence
Outline: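 Pre-emergence: seeds sown in silt loam soil were sprayed with compound in a non-phytotoxic solvent mix containing surfactant. Post-emergence: plants at 2 to 18 cm (1- to 4-leaf stage) in peat moss/vermiculite medium got the same formulation. Visual 0–100 rating versus controls after 14 to 21 d.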

[9] = test system: waterhemp_RES1 (ALS & Triazine resistant common waterhemp, Amaranthus rudis); assay: Test E greenhouse herbicide test, postemergence
Description: as §2

[10] = test system: waterhemp_RES2 (ALS & HPPD resistant common waterhemp, Amaranthus rudis); assay: Test E greenhouse herbicide test, postemergence
Description: as §2

[11] = 62 g ai/ha, scale 0 to 100 (0 no effect, 100 complete control)
[12] = 125 g ai/ha, scale 0 to 100 (0 no effect, 100 complete control)
[13] = 31 g ai/ha, scale 0 to 100, 0 no effect, 100 complete control
[14] = 250 g ai/ha, visual, scale 0 no effect to 100 complete control
[15] = 62 g ai/ha, Preemergence, scale 0 to 100 (0 no effect, 100 complete control)
[16] = 125 g ai/ha, Preemergence, scale 0 to 100 (0 no effect, 100 complete control)
[17] = Preemergence, 31 g ai/ha, scale 0 to 100, 0 no effect, 100 complete control
[18] = Preemergence, 250 g ai/ha, visual, scale 0 no effect to 100 complete control
[19] = 62 g ai/ha, Postemergence, scale 0 to 100 (0 no effect, 100 complete control)
[20] = 125 g ai/ha, Postemergence, scale 0 to 100 (0 no effect, 100 complete control)
[21] = 250 g ai/ha, Postemergence, scale 0 to 100 (0 no effect, 100 complete control)
[22] = Postemergence, 31 g ai/ha, visual, scale 0 no effect to 100 complete control
[23] = 31 g ai/ha, visual, scale 0 no effect to 100 complete control
[24] = 250 g ai/ha, scale 0 to 100 (0 no effect, 100 complete control)

Compound: C#CCOC(=O)Oc1c(C)nn(C)c(=O)c1-c1c(C)sc2ccc(C)cc12 [Compound 87]
- Plant response rating, Nightshade [1, 11]: 90
- Plant response rating, Nightshade [1, 12]: 98
- Plant response rating, Nightshade [1, 13]: 50
- Plant response rating, Nightshade [1, 14]: 98
- Plant response rating, Arrowleaf Sida [2, 15]: 60
- Plant response rating, Arrowleaf Sida [2, 16]: 70
- Plant response rating, Arrowleaf Sida [2, 17]: 0
- Plant response rating, Arrowleaf Sida [2, 18]: 80
- Plant response rating, Lambsquarters [3, 11]: 100
- Plant response rating, Lambsquarters [3, 12]: 100
- Plant response rating, Lambsquarters [3, 13]: 100
- Plant response rating, Lambsquarters [3, 14]: 100
- Plant response rating, Soybean (soybean (Glycine max); [15]): 0
- Plant response rating, Soybean (soybean (Glycine max); [16]): 0
- Plant response rating, Soybean (soybean (Glycine max); [17]): 0
- Plant response rating, Soybean (soybean (Glycine max); [18]): 0
- Plant response rating, Sandbur [4, 15]: 65
- Plant response rating, Sandbur [4, 16]: 75
- Plant response rating, Sandbur [4, 17]: 25
- Plant response rating, Sandbur [4, 18]: 85
- Plant response rating, Dayflower, VA [5, 15]: 0
- Plant response rating, Dayflower, VA [5, 16]: 10
- Plant response rating, Dayflower, VA [5, 17]: 0
- Plant response rating, Dayflower, VA [5, 18]: 35
- Plant response rating, Johnsongrass [6, 11]: 65
- Plant response rating, Johnsongrass [6, 12]: 70
- Plant response rating, Johnsongrass [6, 14]: 75
- Plant response rating, Surinam Grass [7, 11]: 15
- Plant response rating, Surinam Grass [7, 12]: 80
- Plant response rating, Surinam Grass [7, 13]: 10
- Plant response rating, Surinam Grass [7, 14]: 75
- Barley, Winter plant response rating ([8]; Postemergence, 31 g ai/ha, scale 0 to 100 (0 no effect, 100 complete control)): 0
- Plant response rating, Barley, Winter ([8]; Postemergence, 125 g ai/ha, visual rating on scale 0 (no effect) to 100 (complete control), 14 to 21 d): 5
- Plant response rating, Barley, Winter ([8]; Postemergence, 250 g ai/ha, scale 0 to 100 (0 no effect, 100 complete control)): 5
- Plant response rating (scale of 0 to 100), Barley, Winter ([8]; Preemergence, 31 g ai/ha): 0
- Plant response rating, Barley, Winter ([8]; Preemergence, 62 g ai/ha, scale 0 to 100 (0 no effect, 100 complete control)): 0
- Plant response rating, Barley, Winter ([8]; Preemergence, 125 g ai/ha, scale 0 to 100 (0 no effect, 100 complete control)): 10
- Plant response rating, Barley, Winter ([8]; Preemergence, 250 g ai/ha, scale 0 to 100 (0 no effect, 100 complete control)): 25
- Plant response rating, Barley, Winter ([8]; postemergence, 62 g ai/ha, scale 0 to 100, 0 no effect, 100 complete control): 0

Compound: COc1nn(C)c(=O)c(-c2c(C)sc3ccc(Cl)cc23)c1O [Compound 100]
- Plant response rating, Arrowleaf Sida [2, 19]: 60
- Plant response rating, Arrowleaf Sida [2, 20]: 70
- Plant response rating, Arrowleaf Sida [2, 21]: 75
- Plant response rating, Arrowleaf Sida [2, 22]: 50
- Plant response rating, Soybean (soybean (Glycine max); [20]): 0
- Plant response rating, Soybean (soybean (Glycine max); [21]): 0
- Plant response rating, Soybean (soybean (Glycine max); [22]): 0
- Plant response rating, Sandbur [4, 20]: 40
- Plant response rating, Sandbur [4, 21]: 50
- Plant response rating, Sandbur [4, 22]: 20
- Plant response rating, Dayflower, VA [5, 19]: 0
- Plant response rating, Dayflower, VA [5, 20]: 0
- Plant response rating, Dayflower, VA [5, 21]: 0
- Plant response rating, Dayflower, VA [5, 22]: 0
- Plant response rating, Waterhemp_RES1 [9, 23]: 80
- Plant response rating, Waterhemp_RES1 [9, 12]: 85
- Plant response rating, Waterhemp_RES1 [9, 24]: 90
- Plant response rating, Waterhemp_RES2 [10, 23]: 50
- Plant response rating, Waterhemp_RES2 [10, 12]: 65
- Plant response rating, Waterhemp_RES2 [10, 24]: 70

Compound: CSCC(=O)Oc1c(C)nn(C)c(=O)c1-c1cccc2ccccc12 [Compound 171]
- Plant response rating, Arrowleaf Sida [2, 19]: 80
- Plant response rating, Arrowleaf Sida [2, 20]: 90
- Plant response rating, Arrowleaf Sida [2, 21]: 95
- Plant response rating, Arrowleaf Sida [2, 22]: 80
- Plant response rating, Soybean (soybean (Glycine max); [20]): 50
- Plant response rating, Soybean (soybean (Glycine max); [21]): 70
- Plant response rating, Soybean (soybean (Glycine max); [22]): 40
- Plant response rating, Sandbur [4, 20]: 50
- Plant response rating, Sandbur [4, 21]: 60
- Plant response rating, Sandbur [4, 22]: 30
- Plant response rating, Dayflower, VA [5, 19]: 50
- Plant response rating, Dayflower, VA [5, 20]: 70
- Plant response rating, Dayflower, VA [5, 21]: 90
- Plant response rating, Dayflower, VA [5, 22]: 40
- Plant response rating, Waterhemp_RES1 [9, 23]: 50
- Plant response rating, Waterhemp_RES1 [9, 12]: 75
- Plant response rating, Waterhemp_RES1 [9, 24]: 90
- Plant response rating, Waterhemp_RES2 [10, 23]: 15
- Plant response rating, Waterhemp_RES2 [10, 12]: 40
- Plant response rating, Waterhemp_RES2 [10, 24]: 60
